The IC50 is the concentration that inhibits the measured activity by half.

The structures appear in SMILES notation.

Drawing on patent US20130123276A1, “USE OF TELAPREVIR AND RELATED COMPOUNDS IN ATHEROSCLEROSIS, HEART FAILURE, RENAL DISEASES, LIVER DISEASES OR INFLAMMATORY DISEASES” (priority 2011, published 2013), this text covers IC50 for 1 molecule.

The assay has as its target T1, Recombinant human cathepsin A (Homo sapiens, UniProt P10619).
T1 construct: Recombinant human cathepsin A (residues 29-480, with a C-terminal 10-His tag); 10-His (C); purchased R&D Systems 1049-SE
T1 sequence (P10619 29-326 limits assumed): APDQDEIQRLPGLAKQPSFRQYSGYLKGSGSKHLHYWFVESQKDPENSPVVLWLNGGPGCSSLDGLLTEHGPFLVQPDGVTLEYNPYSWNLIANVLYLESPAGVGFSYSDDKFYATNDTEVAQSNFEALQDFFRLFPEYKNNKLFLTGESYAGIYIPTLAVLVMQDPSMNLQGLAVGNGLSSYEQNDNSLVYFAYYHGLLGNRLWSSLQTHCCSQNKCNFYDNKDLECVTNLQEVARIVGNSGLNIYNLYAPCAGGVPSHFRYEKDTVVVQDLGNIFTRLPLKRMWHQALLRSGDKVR
T1 sequence (P10619 327-480 limits assumed): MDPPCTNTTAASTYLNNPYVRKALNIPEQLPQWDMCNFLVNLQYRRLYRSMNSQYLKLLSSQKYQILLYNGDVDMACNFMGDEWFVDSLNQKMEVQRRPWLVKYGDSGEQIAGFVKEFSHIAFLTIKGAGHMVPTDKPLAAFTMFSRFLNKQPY
As to the kind of experiment: Cathepsin A inhibitory activity. The conditions noted are these: activated recombinant human cathepsin A, Bodipy FL-labeled bradykinin substrate, pH 5.5, microfluidic capillary electrophoresis. It is filed as biochemical. As to the method: Recombinant human cathepsin A (residues 29-480, with a C-terminal 10-His tag; R&D Systems, # 1049-SE) was proteolytically activated with recombinant human cathepsin L (R&D Systems, # 952-CY). Briefly, cathepsin A was incubated at 10 μg/ml with cathepsin L at 1 μg/ml in activation buffer (25 mM 2-(morpholin-4-yl)-ethanesulfonic acid (MES), pH 6.0, containing 5 mM dithiothreitol (DTT)) for 15 min at 37° C. Cathepsin L activity was then stopped by the addition of the cysteine protease inhibitor E-64 (N-(trans-epoxysuccinyl)-L-leucine-4-guanidinobutylamide; Sigma-Aldrich, # E3132; dissolved in activation buffer/DMSO) to a final concentration of 10 μM.
The activated cathepsin A was diluted in assay buffer (25 mM MES, pH 5.5, containing 5 mM DTT) and mixed with the test compound (dissolved in assay buffer containing (v/v) 3% DMSO) or, in the control experiments, with the vehicle in a multiple assay plate. […]
Uncleaved substrate and product were then separated by a microfluidic capillary electrophoresis on a LabChip® 3000 Drug Discovery System (12-Sipper-Chip; Caliper Life Sciences) and quantified by determination of the respective peak areas. Substrate turnover was calculated by dividing product peak area by the sum of substrate and product peak areas, and the enzyme activity and the inhibitory effect of the test compound thus quantified. […]

Regarding `CCC[C@H](NC(=O)[C@@H]1[C@H]2CCC[C@H]2CN1C(=O)[C@@H](NC(=O)[C@@H](NC(=O)c1cnccn1)C1CCCCC1)C(C)(C)C)C(=O)C(=O)NC1CC1` [Telaprevir, (1 S,3aR,6aS)-2-[(2S)-2-[[(2S)-2-Cyclohexyl-2-(pyrazine-2-carbonylamino)acetyl]amino]-3,3-dimethylbutanoyl]-N-[(3S)-1-(cyclopropylamino)-1,2-dioxohexan-3-yl]-3,3a,4,5,6,6a-hexahydro-1H-cyclopenta[c]pyrrole-1-carboxamide], the IC50 worked out at 100 nM.
